{"source": "the supplement of paper PMC10307832", "test_in_all_cases": "relative viability (nuclei count vs DMSO), 5 days (fraction); higher = more cells survive", "key": {"ABC-1": {"system": "ABC-1", "outline": "(§1)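 Dosing by pin tool came one day after lung cancer cell lines were seeded in 1536-well plates, using either one drug or a fixed anchor-drug dose plus five library-drug doses (not always all listed) in √10 steps. After 5 days, nuclei were counted on 4× images. Relative viability is treated-well nuclei count divided by vehicle-well nuclei count, and values are medians of duplicate plates.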"}, "CAL-12T": {"system": "CAL-12T", "outline": "as §1"}, "HCC-366": {"system": "HCC-366", "outline": "as §1"}, "HCC-78": {"system": "HCC-78", "outline": "as §1"}, "LC-2-ad": {"system": "LC-2-ad", "outline": "as §1"}, "LOU-NH91": {"system": "LOU-NH91", "outline": "as §1"}, "LU99A": {"system": "LU99A", "outline": "as §1"}, "NCI-H1395": {"system": "NCI-H1395", "outline": "as §1"}, "NCI-H1651": {"system": "NCI-H1651", "outline": "as §1"}, "NCI-H1755": {"system": "NCI-H1755", "outline": "as §1"}, "NCI-H1793": {"system": "NCI-H1793", "outline": "as §1"}, "NCI-H1944": {"system": "NCI-H1944", "outline": "as §1"}, "NCI-H2087": {"system": "NCI-H2087", "outline": "as §1"}, "NCI-H2170": {"system": "NCI-H2170", "outline": "as §1"}, "NCI-H2228": {"system": "NCI-H2228", "outline": "as §1"}, "NCI-H2405": {"system": "NCI-H2405", "outline": "as §1"}, "NCI-H3122": {"system": "NCI-H3122", "outline": "as §1"}, "NCI-H460": {"system": "NCI-H460", "outline": "as §1"}, "PC-3 [JPC-3]": {"system": "PC-3 [JPC-3]", "outline": "as §1"}, "RERF-LC-KJ": {"system": "RERF-LC-KJ", "outline": "as §1"}, "UMC-11": {"system": "UMC-11", "outline": "as §1"}}}
{"molecule": "COc1nc(C)cnc1NS(=O)(=O)c1cccnc1-c1ccc(-c2nnco2)cc1", "note": "[Zibotentan] + Cc1nc(NC(=O)N2CCC[C@H]2C(N)=O)sc1-c1ccnc(C(C)(C)C(F)(F)F)c1 [Alpelisib] (partner 2 µM)", "values": [{"measurement": "relative viability", "setting": "ABC-1; first compound 0.08 µM", "result": 1.1}, {"measurement": "relative viability", "setting": "ABC-1; first compound 0.253 µM", "result": 0.689}, {"measurement": "relative viability", "setting": "ABC-1; first compound 0.8 µM", "result": 1.11}, {"measurement": "relative viability", "setting": "ABC-1; first compound 2.53 µM", "result": 1.07}, {"measurement": "relative viability", "setting": "CAL-12T; first compound 0.08 µM", "result": 1.25}, {"measurement": "relative viability", "setting": "CAL-12T; first compound 0.253 µM", "result": 0.923}, {"measurement": "relative viability", "setting": "CAL-12T; first compound 0.8 µM", "result": 1.33}, {"measurement": "relative viability", "setting": "CAL-12T; first compound 2.53 µM", "result": 1.23}, {"measurement": "relative viability", "setting": "HCC-366; first compound 0.08 µM", "result": 0.561}, {"measurement": "relative viability", "setting": "HCC-366; first compound 0.253 µM", "result": 0.373}, {"measurement": "relative viability", "setting": "HCC-366; first compound 0.8 µM", "result": 0.474}, {"measurement": "relative viability", "setting": "HCC-366; first compound 2.53 µM", "result": 0.497}, {"measurement": "relative viability", "setting": "HCC-78; first compound 0.08 µM", "result": 0.342}, {"measurement": "relative viability", "setting": "HCC-78; first compound 0.253 µM", "result": 0.342}, {"measurement": "relative viability", "setting": "HCC-78; first compound 0.8 µM", "result": 0.23}, {"measurement": "relative viability", "setting": "HCC-78; first compound 2.53 µM", "result": 0.374}, {"measurement": "relative viability", "setting": "LC-2-ad; first compound 0.08 µM", "result": 0.852}, {"measurement": "relative viability", "setting": "LC-2-ad; first compound 0.253 µM", "result": 0.869}, {"measurement": "relative viability", "setting": "LC-2-ad; first compound 0.8 µM", "result": 0.92}, {"measurement": "relative viability", "setting": "LC-2-ad; first compound 2.53 µM", "result": 1.03}, {"measurement": "relative viability", "setting": "LOU-NH91; first compound 0.08 µM", "result": 0.749}, {"measurement": "relative viability", "setting": "LOU-NH91; first compound 0.253 µM", "result": 0.696}, {"measurement": "relative viability", "setting": "LOU-NH91; first compound 0.8 µM", "result": 0.785}, {"measurement": "relative viability", "setting": "LOU-NH91; first compound 2.53 µM", "result": 0.702}, {"measurement": "relative viability", "setting": "LU99A; first compound 0.08 µM", "result": 0.516}, {"measurement": "relative viability", "setting": "LU99A; first compound 0.253 µM", "result": 0.58}, {"measurement": "relative viability", "setting": "LU99A; first compound 0.8 µM", "result": 0.545}, {"measurement": "relative viability", "setting": "LU99A; first compound 2.53 µM", "result": 0.58}, {"measurement": "relative viability", "setting": "NCI-H1395; first compound 0.08 µM", "result": 1.28}, {"measurement": "relative viability", "setting": "NCI-H1395; first compound 0.253 µM", "result": 0.993}, {"measurement": "relative viability", "setting": "NCI-H1395; first compound 0.8 µM", "result": 1.18}, {"measurement": "relative viability", "setting": "NCI-H1395; first compound 2.53 µM", "result": 1.42}, {"measurement": "relative viability", "setting": "NCI-H1651; first compound 0.08 µM", "result": 0.882}, {"measurement": "relative viability", "setting": "NCI-H1651; first compound 0.253 µM", "result": 0.88}, {"measurement": "relative viability", "setting": "NCI-H1651; first compound 0.8 µM", "result": 0.88}, {"measurement": "relative viability", "setting": "NCI-H1651; first compound 2.53 µM", "result": 1.04}, {"measurement": "relative viability", "setting": "NCI-H1755; first compound 0.08 µM", "result": 0.887}, {"measurement": "relative viability", "setting": "NCI-H1755; first compound 0.253 µM", "result": 0.911}, {"measurement": "relative viability", "setting": "NCI-H1755; first compound 0.8 µM", "result": 0.937}, {"measurement": "relative viability", "setting": "NCI-H1755; first compound 2.53 µM", "result": 0.94}, {"measurement": "relative viability", "setting": "NCI-H1793; first compound 0.08 µM", "result": 0.821}, {"measurement": "relative viability", "setting": "NCI-H1793; first compound 0.253 µM", "result": 0.53}, {"measurement": "relative viability", "setting": "NCI-H1793; first compound 0.8 µM", "result": 0.852}, {"measurement": "relative viability", "setting": "NCI-H1793; first compound 2.53 µM", "result": 0.713}, {"measurement": "relative viability", "setting": "NCI-H1944; first compound 0.08 µM", "result": 0.915}, {"measurement": "relative viability", "setting": "NCI-H1944; first compound 0.253 µM", "result": 0.808}, {"measurement": "relative viability", "setting": "NCI-H1944; first compound 0.8 µM", "result": 0.756}, {"measurement": "relative viability", "setting": "NCI-H1944; first compound 2.53 µM", "result": 0.888}, {"measurement": "relative viability", "setting": "NCI-H2087; first compound 0.08 µM", "result": 1.06}, {"measurement": "relative viability", "setting": "NCI-H2087; first compound 0.253 µM", "result": 1.13}, {"measurement": "relative viability", "setting": "NCI-H2087; first compound 0.8 µM", "result": 1.03}, {"measurement": "relative viability", "setting": "NCI-H2087; first compound 2.53 µM", "result": 1.05}, {"measurement": "relative viability", "setting": "NCI-H2170; first compound 0.08 µM", "result": 0.802}, {"measurement": "relative viability", "setting": "NCI-H2170; first compound 0.253 µM", "result": 0.791}, {"measurement": "relative viability", "setting": "NCI-H2170; first compound 0.8 µM", "result": 0.889}, {"measurement": "relative viability", "setting": "NCI-H2170; first compound 2.53 µM", "result": 0.835}, {"measurement": "relative viability", "setting": "NCI-H2228; first compound 0.08 µM", "result": 0.66}, {"measurement": "relative viability", "setting": "NCI-H2228; first compound 0.253 µM", "result": 0.652}, {"measurement": "relative viability", "setting": "NCI-H2228; first compound 0.8 µM", "result": 0.59}, {"measurement": "relative viability", "setting": "NCI-H2228; first compound 2.53 µM", "result": 0.873}, {"measurement": "relative viability", "setting": "NCI-H2405; first compound 0.08 µM", "result": 0.787}, {"measurement": "relative viability", "setting": "NCI-H2405; first compound 0.253 µM", "result": 0.65}, {"measurement": "relative viability", "setting": "NCI-H2405; first compound 0.8 µM", "result": 0.745}, {"measurement": "relative viability", "setting": "NCI-H2405; first compound 2.53 µM", "result": 0.948}, {"measurement": "relative viability", "setting": "NCI-H3122; first compound 0.08 µM", "result": 0.801}, {"measurement": "relative viability", "setting": "NCI-H3122; first compound 0.253 µM", "result": 0.773}, {"measurement": "relative viability", "setting": "NCI-H3122; first compound 0.8 µM", "result": 0.76}, {"measurement": "relative viability", "setting": "NCI-H3122; first compound 2.53 µM", "result": 0.822}, {"measurement": "relative viability", "setting": "NCI-H460; first compound 0.08 µM", "result": 0.58}, {"measurement": "relative viability", "setting": "NCI-H460; first compound 0.8 µM", "result": 0.57}, {"measurement": "relative viability", "setting": "NCI-H460; first compound 2.53 µM", "result": 0.452}, {"measurement": "relative viability", "setting": "PC-3 [JPC-3]; first compound 0.08 µM", "result": 1.01}, {"measurement": "relative viability", "setting": "PC-3 [JPC-3]; first compound 0.253 µM", "result": 1.06}, {"measurement": "relative viability", "setting": "PC-3 [JPC-3]; first compound 0.8 µM", "result": 1.05}, {"measurement": "relative viability", "setting": "PC-3 [JPC-3]; first compound 2.53 µM", "result": 1.04}, {"measurement": "relative viability", "setting": "RERF-LC-KJ; first compound 0.08 µM", "result": 0.865}, {"measurement": "relative viability", "setting": "RERF-LC-KJ; first compound 0.253 µM", "result": 0.898}, {"measurement": "relative viability", "setting": "RERF-LC-KJ; first compound 0.8 µM", "result": 0.826}, {"measurement": "relative viability", "setting": "RERF-LC-KJ; first compound 2.53 µM", "result": 0.83}, {"measurement": "relative viability", "setting": "UMC-11; first compound 0.08 µM", "result": 0.861}, {"measurement": "relative viability", "setting": "UMC-11; first compound 0.253 µM", "result": 0.961}, {"measurement": "relative viability", "setting": "UMC-11; first compound 0.8 µM", "result": 0.925}, {"measurement": "relative viability", "setting": "UMC-11; first compound 2.53 µM", "result": 0.971}]}
